The values that follow come from patent US5329010A, “Quinone derivatives” (Eisai Co., Ltd., priority 1991, dated 1994).

The test system of series [1] is production of leukotriene B4 (LTB4), rat abdominal glycogenic infiltration cell. Description: Inhibitory activity against production of leukotriene B4 (LTB4) from rat abdominal infiltration cell. The following applies: 10 min, cells 5×10^6/ml, calcium ionophore A-23187 2 μg/ml, 37° C., enzyme immunoassay. It counts as cell-based, rat (Fisher male). Here is the method:
(§1) Inhibitory activity against the production of leukotriene B4 (LTB4) and thromboxane B2 (TxB2 from rat abdominal infiltration cell
(§2) 10 ml of a 6% (w/v) solution of glycogen (Type II from Oyster, Sigma) in physiological saline was injected into the abdominal cavity of a Fisher male rat having a weight of 150 to 200 g. After 20 to 24 hours, the abdominal exudation cells were recovered therefrom, washed and suspended in the Hanks' balanced salt solution (HBSS) in a concentration of 5×10^6 /ml. This suspension was poured onto a 96-well culture plate (Costar: registered trademark) in which a test drug diluted to a predetermined concentration had been put in an amount of 10 μl/well, in an amount of 100 μl/well. The resulting plate was incubated at 37° C. for 5 minutes. Calcium ionophore A-23187 [Calbiochem (registered trademark)] was added in a final concentration of 2 μg/ml. After the reaction at 37° C. for additional 10 minutes, the plate was put on ice and a BW755C solution was added in a final concentration of 100 μM. The resulting plate was centrifuged at 15000 rpm for 10 minutes. The supernatant was recovered and the amounts of LTB4 and TxB2 in the supernatant were determined by enzyme immunoassay with an EIA kit mfd. by Cayman.

The subject of series [2] is production of thromboxane B2 (TxB2), rat abdominal glycogenic infiltration cell. Put plainly: Inhibitory activity against production of thromboxane B2 (TxB2) from rat abdominal infiltration cell. It counts as cell-based, rat (Fisher male). Particulars: 10 min, cells 5×10^6/ml, calcium ionophore A-23187 2 μg/ml, 37° C., enzyme immunoassay. Here is the method:
as §1, §2
(Thromboxane A2 is very unstable to treat and naturally turns to thromboxane B2 in 10-20 seconds in the human body. Therefore, thromboxane B2 was used in the tests above).

The nature of series [3]: Repetitive Oral Administration Test for 4 Weeks on Dogs. Set-up: species or system dog (female beagle). Particulars: in vivo, concluded after rat and dog tests, read-out: toxicologically non-influential dose. As for the experimental part:
Repetitive Oral Administration Test for 4 Weeks on Dogs
30 and 100 mg/kg of the compound obtained in the Example 3 was orally administered to female beagles aged 8 months (each group consisting of 2 animals) for 4 weeks. This compound was triturated with lactose and administered once a day.
During the administration period, the general conditions of the animals were observed and the body weight and feed intake were measured. After the completion of the first, seventh and final administrations, hemo-biochemical examination was effected. After the completion of the seventh and final administrations, further, hematological examination and urinalysis were effected. Furthermore, autopsy was effected and organs were weighed after the final administration. Livers, kidneys and adrenal bodies were patho-histologically examined under an optical microscope.

Series [4] is described as follows: Repetitive Oral Administration Test for 4 Weeks on Rats. Format: in vivo, rat (female Slc:SD). The following applies: once a day, each of 30 and 100 mg/kg. As for the experimental part: Repetitive Oral Administration Test for 4 Weeks on Rats
30 and 100 mg/kg of the compound obtained in the Example 3 was orally administered to female Slc:SD rats aged 7 weeks (each group consisting of 5 animals) for 4 weeks. This compound was suspended in a 0.5 wt. % aqueous solution of methylcellulose and administered once a day.
During the administration period, the general conditions of the animals were observed and the body weight and feed intake were measured. After the completion of the final administration, hematological examination, hemo-biochemical examination, urinalysis and autopsy were effected and organs were weighed. Further, livers and kidneys were patho-histologicallyexamined under an optical microscope.

Regarding `COc1c(C)c(O)c(/C=C(\CCCCCc2cccnc2)C(=O)O)c(C)c1O` [Ex. 4, (E)-3-(2,5-Dihydroxy-4-methoxy-3,6-dimethylphenyl)-2-[5-(3-pyridyl)pentyl]-2-propenoic acid], the results for the IC50 in series [1] and in series [2] were 7.86 µM and 0.46 µM, respectively.
`COC1=C(C)C(=O)C(/C=C(\CCCCCc2cccnc2)C(=O)O)=C(C)C1=O` [Ex. 3, (E)-3-(2-Methoxy-3,6-dimethyl-1,4-benzoquinon-5-yl)-2-[5-(3-pyridyl)pentyl]-2-propenoic acid]: in series [3], the NOAEL at 672 h worked out at 100 mg/kg. For the same molecule, the IC50 in series [1] worked out at 1.16 µM; in series [2], 0.05 µM. In series [4], the “change in general conditions, body weight, feed intake, hematology, hemo-biochemistry, urinalysis, autopsy, organ weight, histology” value is “No change was observed”.
Turning to `CCOC(=O)/C(=C/c1c(C)c(OC)c(OC)c(C)c1OC)CCCc1cccnc1` [Ex. 10], the values for the 50% inhibitory concentration (IC50) in series [1] and in series [2] were 0.32 µM and 0.42 µM, respectively.
As for `CCCCCCCOc1c(C)c(OC)c(/C=C(\CCCCCc2cccnc2)C(=O)OCC)c(C)c1OC` [Ex. 5], the IC50 in series [1] amounted to 3.16 µM; in series [2] it was 0.48 µM.
The matching figures for `CCCCCCCOc1c(C)c(OC)c(C)c(/C=C(\CCCCCc2cccnc2)C(=O)OCC)c1OC` [Ex. 9]: 3.16 µM and 0.16 µM.
The matching figures for `CCCCOc1c(C)c(OC)c(C)c(/C=C(\CCCCCc2cccnc2)C(=O)OCC)c1OC` [Ex. 7]: 1.39 µM and 0.09 µM.
